Assay results as given in patent US10189870B2, “Crystalline form of oxazolidinone antibiotics and preparation method, composition and use thereof” (Hangzhou Pushai Pharmaceutical Technology Co., Ltd., priority 2014, dated 2019).
≈ marks a conversion by molar mass, not a printed value. Like-named read-outs stand apart in the source and are kept apart here.

Key:
[1] = Isothermal adsorption curve (hygroscopicity); assay type: physicochemical; conditions: for hygroscopicity (in words): isothermal adsorption curve
Method: The Isothermal Adsorption Curve data are collected by TA Instruments Q5000 TGA. The instrument control software is Thermal Advantage and the analysis software is Universal Analysis. Generally, take 1 to 10 mg of the sample and place it in a platinum pan, and record weight changes of the sample during the course of the relative humidity changing from 0% to 80% then to 0%. Depending on samples, different adsorption and desorption steps may be used.

[2] = Storage stability at 25° C. and 60% RH; assay type: physicochemical; conditions: stored for 6 months at 25° C. and 60% RH
[3] = Solubility in water, filtrate content measured by HPLC; assay type: physicochemical; conditions: for solubility at 10 h: water, 25 °C, thermodynamic from solid
Method: High Performance Liquid Chromatogram (HPLC) analysis data are collected from Agilent 1260 and the chemical workstation is B.04. The corresponding parameters are as follows: chromatographic column Eclipst XDB-C18, 5 μm, 4.6×250 mm, H-005#, column temperature 25° C., flow rate 0.3 ml/min, mobile phase 13% acetonitrile and 87% water (0.0025M ammonium bicarbonate), wavelength 254 nm, sample size 10 μL and operation duration 20 min.
In 100 mL of water was added 20.0 mg of Form I prepared in preparation example 1 or 20 mg of Form II prepared in example 1, and stirred for 10 hours at 25° C., filtered, the content of the filtrate was directly measured by HPLC.

[4] = Stability test under high temperature and bright light, HPLC purity; assay type: physicochemical; conditions: for Change in value of maximum individual impurity content: increase
Method: High Performance Liquid Chromatogram (HPLC) analysis data are collected from Agilent 1260 and the chemical workstation is B.04. The corresponding parameters are as follows: chromatographic column […] XDB-C18, 5 μm, 4.6×250 mm, H-005#, column temperature 25° C., flow rate 0.3 ml/min, mobile phase 13% acetonitrile and 87% water (0.0025M ammonium bicarbonate), wavelength 254 nm, sample size 10 μL and operation duration 20 min. Form I of TR-701FA prepared in preparation example 1 and Form II of TR-701FA of the present invention were compared in the stability test by being stored for 10 days under conditions of high temperature and bright light. The high temperature was 80° C. and the light was 6,000 lx. HPLC purities and maximum individual impurity contents of the compounds were tested before and after the storage, and the results were shown in Table 3.

[5] = cited from earlier work
[6] = aqueous solution or acid solution; cited from earlier work
[7] = 0 day vs 10 days at 80° C. and 6,000 lx
[8] = high temperature (80° C.) and lighting (6,000 lx) for 10 days

purity and crystalline form after storage [2] | solubility at 10 h ([3]; at room temperature, read-out: water solubility) | HPLC purity ([4]; 0 day) | Maximum individual impurity content ([4]; 0 day) | Change in value of maximum individual impurity content [4, 7] | HPLC purity [4, 8] | Maximum individual impurity content [4, 8] | weight change on isothermal adsorption curve ([1]; relative humidity range of 20% to 80% RH) | solubility in water (in words) [3] | solubility at 10 h ([3]; stirred 10 hours at 25° C. (room temperature), filtrate by HPLC, read-out: solubility in water) | Change in value of HPLC purity ([4]; 0 day vs 10 days at 80° C. and 6,000 lx, positive = decrease) | SMILES | hygroscopicity (in words) [1] | solubility relative to tedizolid (in words) [5] | stability in solution (in words) [6]
remain unchanged | 168 µg/mL (≈ 373 µM) | 98.3% | 1.6% | 0.1% | 98.4% | 1.7% | – | – | – | – | Cn1nnc(-c2ccc(-c3ccc(N4C[C@H](COP(=O)(O)O)OC4=O)cc3F)cn2)n1 [Form II of TR-701FA, (R)-3-(4-(2-(2-methyltetrazol-5-yl)pyridine-5-yl)-3-fluorophenyl)-5-hydroxymethyl oxazolidin-2-onedihydrogenphosphate] | lower hygroscopicity than the known Form I | – | –
– | – | 98.7% | 1.3% | 1.2% | 96.6% | 2.5% | approximately 1.56% | low solubility in water | 118 µg/mL (≈ 262 µM) | 2.1% | Cn1nnc(-c2ccc(-c3ccc(N4C[C@H](COP(=O)(O)O)OC4=O)cc3F)cn2)n1 [Form I of TR-701FA, (R)-3-(4-(2-(2-methyltetrazol-5-yl)pyridine-5-yl)-3-fluorophenyl)-5-hydroxymethyl oxazolidin-2-onedihydrogenphosphate] | high hygroscopicity | – | –
– | – | – | – | – | – | – | – | – | – | – | Cn1nnc(-c2ccc(-c3ccc(N4C[C@H](COP(=O)(O)O)OC4=O)cc3F)cn2)n1 [TR-701FA, (R)-3-(4-(2-(2-methyltetrazol-5-yl)pyridine-5-yl)-3-fluorophenyl)-5-hydroxymethyl oxazolidin-2-onedihydrogenphosphate] | – | better solubility than tedizolid | stable in aqueous solution or acid solution
